Assay results taken from patent US20150290192A1, “INHIBITORS OF BRUTON'S TYROSINE KINASE” (HOFFMANN-LA ROCHE INC., priority 2012, published 2015).
Read-outs that look alike come from different tables or passages of the source. Marks after values point to notes of the source that are not given here.

Columns and labels:
[1] = test system: human mast cells (FCεRI activation); assay: Human mast cell activation, mediator release after FCεRI activation; assay type: cell-based; conditions: N = 3 donors
Experimental: One million human cord blood derived CD34+ hematopoietic stem cells (HSCs) from different donors (AllCells #CB008F-S, Emeryville, Calif.) were cultured for eight weeks in a serum-free complete medium (StemPro-34 with supplements; Invitrogen, Carlsbad, Calif.), with recombinant h-SCF (100 ng/ml) and h-IL6 (50 ng/ml). During the first week of culturing, recombinant h-IL3 (10 ng/ml) was also included to support HSCs differentiation. After 8 weeks of culture, cells were stimulated with recombinant h-IL-4 (10 ng/ml) for 5 days. Confirmation of the mast cell differentiation process was routinely done by FACS to check for c-kit and FcsRI expression; differentiated cells were routinely more than 90% c-kit positive, FceRI positive. Differentiated mast cells were sensitized with […] anti-NP IgE (Serotec, Raleigh, N.C.) overnight at 37° C. Cells were washed and then treated with Compound 1 for 1 hour at 37° C. After treatment, cells were cross-linked with […] NP(30)-BSA (Biosearch Technologies, Novato Calif.) for 30 minutes (for histamine and lipid mediator assessment) or overnight (for cytokine assessment). Culture supernatants were collected and assayed for histamine (Oxford Biomedical Research, Rochester Hills, Mich.), PGD2 and LTC4 (Cayman Chemical Company, Ann Arbor Mich.), and IL-5 and IL-13 (Bio-Rad Bio-Plex Pro cytokine quantification kit) release as per kits' instructions. Compound 1, Compound 2 and Compound 3 reduced the release of these mediators into the supernatant in a concentration dependent manner up to 100% efficacy and the IC50 values are reported in Table 2.

[2] = test system: OVA sensitized and challenged mice, airway eosinophilia; assay: Ovalbumin-induced allergic airway disease: allergen-induced airway eosinophilia; assay type: in vivo, mouse; conditions: for % reduction in airway eosinophilia: Inhaled, mOVA40
Experimental: The mouse model of ovalbumin-induced allergic airway disease was employed to assess the effects of Compound 1 on allergen-induced bronchoconstriction and allergen-induced airway inflammation. Briefly, mice (male; BALB/c; 7-9 weeks of age) were immunized i.p. with […] of ovalbumin (OVA) in 0.2 ml of Alum (2% Al(OH)3 in water, Serva, Heidelberg, Germany) on days 0 and 14. Control animals received Alum only. On days 21-23, animals were exposed for 20 min to a nebulized (Proneb Ultra II, PARI Respiratory Equipment, Midlothian, Va.,) aerosol of 1% OVA (10 mg/ml) in phosphate-buffered saline (PBS), to establish the inflammatory process within the lung; or PBS alone as a control. For studies where intranasal dosing was used, mice were anesthetized with isoflurane and intranasally (i.n.) administered vehicle (20% propylene glycol) or Compound 1 (0.3 mg/kg) one hour prior to each aerosolized OVA challenge.
For studies using inhalation delivery, Compound 1 was micronized by a jet mill (MC One Jet Mill, Jetpharma USA Inc., South Plainfield, N.J.) and the dry powder aerosol was generated using a Wright dust feed dry powder aerosol generator. The micronized drug powder was packed into a cylindrical reservoir using a hydraulic press at approximately 1000 psi to produce compacted cakes of powder used as input by the Wright dust feed. The dust feed creates and aerosol that is passed through a sonic nozzle for de-agglomeration and into a cyclone to remove non-respirable particles and agglomerates. The cyclone output passed into the TSE nose-only rodent exposure system. Dose groups of mice were exposed to the aerosol test atmosphere for 5, 15, or 45 minutes. […] The particle size distribution for each exposure was evaluated by collecting aerosol samples with an eight stage cascade impactor. […] Impactor data were mathematically evaluated to determine the Mass Median Aerodynamic Diameter (MMAD) and Geometric Standard Deviation (GSD) of 6-tert-Butyl-2-[2-hydroxymethyl-3-(5-{5-[(2-methoxy-ethylamino)-methyl]-pyridin-2-ylamino}-1-methyl-6-oxo-1,6-dihydro-pyridin-3-yl)-phenyl]-3,4-dihydro-2H-isoquinolin-1-one using graphical analysis of an assumed lognormal distribution. The estimated deposited dose of Compound 1 was calculated using a minute volume for the mouse of 0.026 liters per minute and the pulmonary deposition fraction was determined from the MMAD. […]
To study the effects of Compound 1 on airway inflammation, after the three 1% OVA challenges, a final OVA challenge was given as an aerosol solution of 5% OVA in PBS (50 mg/ml) or PBS alone for 20 min. […] The lungs were lavaged and airway inflammation was evaluated as previously described by performing total and differential cell counts [Harris et al., 2012, Mucosal Immunology]. […]

[3] = Micronization: particle size and polymorphic form; assay type: physicochemical
Experimental: 10.6 g of compound 1 was micronized in a Jet-O-Mizer jet mill at feed and grinding pressures of 90 psi. The micronized material thus obtained was analyzed by powder X-ray diffraction pattern and particle size distribution as shown in FIGS. 1 and 2 respectively. No change in polymorphic form was observed during the micronization process. Eighty percent of the particles were of size 5 μm or less with a mean particle size (d50%=2.88 μm) in the range suitable for inhalation delivery. The material was used for the in vivo experiment mOVA36.
8.6 g of 2-(6-tert-butyl-8-fluoro-1-oxophthalazin-2(1H)-yl)-4-(1-methyl-5-(5-(1-methylpiperidin-4-yl)pyridin-2-ylamino)-6-oxo-1,6-dihydropyridazin-3-yl)nicotinaldehyde was micronized in a Jet-O-Mizer jet mill at 80 psi. The mean particle size (d50%) was 3.05 μm with 90% particles ≦6 μm (FIG. 3). This material (30% w/w) and lactose (Lactohale LH 300, 70% w/w) were mixed in a Turbula mixer at 22 rpm for 15 minutes. The d50% and d90% particle size of the lactose ingredient were <5 μm and <10 μm, respectively (DFE Pharma specifications (#001/October 2011). The blend thus obtained was used for the in vivo experiment mOVA40, mPolylC-3-12 and mPolylC-5-12. See FIG. 3.

- IC50 ([1]; read-out: IC50 1L-13 release): 11.6 nM
- IC50 ([1]; read-out: IC50 GM-CSF release): 3.77 nM
- IC50 ([1]; read-out: IC50 Histamine release): 14.7 nM
- IC50 ([1]; read-out: IC50 IL-5 release): 7.32 nM
- IC50 ([1]; read-out: IC50 LTC4 release): 4.28 nM
- IC50 ([1]; read-out: IC50 PGD2 release): 6.31 nM
- particle size of 90% particles ([3]; micronized at 80 psi, material for mOVA40 and mPolyIC): ≤ 6 μm
- particles of size 5 μm or less ([3]; micronized at 90 psi, material for mOVA36): Eighty
- mean particle size (d50%) ([3]; micronized in Jet-O-Mizer jet mill at 80 psi, material for mOVA40 and mPolyIC): 3.05 μm
- mean particle size (d50%) ([3]; micronized in Jet-O-Mizer jet mill at 90 psi, material for mOVA36): 2.88 μm
- change in polymorphic form during the micronization process ([3]; powder X-ray diffraction before and after micronization): No change
SMILES: CN1CCC(c2ccc(Nc3cc(-c4ccnc(-n5ncc6cc(C(C)(C)C)cc(F)c6c5=O)c4CO)nn(C)c3=O)nc2)CC1 [Compound 1, 6-tert-Butyl-8-fluoro-2-{3-hydroxymethyl-4-[1-methyl-5-(1′-methyl-1′,2′,3′,4′,5′,6′-hexahydro-[3,4′]bipyridinyl-6-ylamino)-6-oxo-1,6-dihydro-pyridazin-3-yl]-pyridin-2-yl}-2H-phthalazin-1-one]
- % reduction in airway eosinophilia ([2]; delivered dose 0.09 mg/kg, deposited dose .003 mg/kg): 82* %
- % reduction in airway eosinophilia ([2]; delivered dose 0.27 mg/kg, deposited dose .010 mg/kg): 83* %
- % reduction in airway eosinophilia ([2]; delivered dose 0.81 mg/kg, deposited dose .030 mg/kg): 84* %
- OVA-induced increase in the numbers of eosinophils recovered in the lavage fluid ([2]; dry powder formulation by inhalation): effectively inhibited
